The target in test [1] is T1, porcine pancreatic α-amylase (PPA) (Sus scrofa, UniProt P00690).
T1 construct: purchased Sigma-Aldrich Co., Ltd., Dorset, UK
T1 sequence (P00690 16-511): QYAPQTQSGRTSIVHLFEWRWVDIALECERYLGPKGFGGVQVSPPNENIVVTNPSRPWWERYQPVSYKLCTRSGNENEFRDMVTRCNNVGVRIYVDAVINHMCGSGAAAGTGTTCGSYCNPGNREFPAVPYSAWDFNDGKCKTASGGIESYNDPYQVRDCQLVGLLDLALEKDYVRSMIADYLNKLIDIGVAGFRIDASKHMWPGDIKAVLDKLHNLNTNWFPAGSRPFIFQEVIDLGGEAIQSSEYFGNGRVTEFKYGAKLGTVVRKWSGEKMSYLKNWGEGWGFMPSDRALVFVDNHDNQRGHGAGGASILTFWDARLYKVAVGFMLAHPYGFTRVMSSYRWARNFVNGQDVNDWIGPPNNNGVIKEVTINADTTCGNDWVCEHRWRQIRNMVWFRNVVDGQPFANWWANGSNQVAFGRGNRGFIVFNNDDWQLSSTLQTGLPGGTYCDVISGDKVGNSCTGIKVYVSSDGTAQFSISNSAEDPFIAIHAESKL
Conditions: cited from earlier work; for mode of inhibition: DNS method; for IC50: ref Sui, Zhang, and Zhou 35.

Test [2] concerns the target pancreatic alpha-amylase. Particulars: cited from earlier work.
Test [3] addresses T2, α-amylase (Sus scrofa, UniProt P00690).
T2 construct: purchased Sigma-Aldrich Co., Ltd., Dorset, UK
T2 sequence (P00690 16-511): T1 sequence (P00690 16-511)
As to the kind of experiment: α-Amylase inhibition by anthocyanin metabolites (assay not stated). The class given is biochemical. Conditions: high concentrations of 1000 μg/mL.

Test [4] addresses human salivary amylase. Particulars: reference not given; cited from earlier work.
Test [5] addresses T3, pancreatic α-amylase (PPA) (Sus scrofa, UniProt P00690).
T3 construct: purchased Sigma-Aldrich Co., Ltd., Dorset, UK
T3 sequence (P00690 16-511): T1 sequence (P00690 16-511)
Nature of the test: Mode of inhibition / enzyme kinetics, Lineweaver–Burk plots with CNPG3. The format is biochemical, porcine. Particulars: for mode of inhibition: CNPG3 0–5 mM, PPA 1 U/mL; for effect of inhibitor on Vmax: Lineweaver–Burk plot. On the procedure:
(§1) In preliminary experiments, the optimum enzyme and substrate concentrations for the assay were determined using different concentrations of α-amylase (0.25, 0.5, and 1 U/mL) and CNPG3 (0, 0.625, 1.25, 2.5, and 5 mM). The linearity of enzyme reaction was monitored over 20 min under optimized enzyme and substrate concentrations, and incubation time for enzymatic reaction was defined. […] The rate of enzymatic reaction (V) was calculated by dividing the change in absorbance (at 405 nm) over time. The Lineweaver–Burk double reciprocal plot was obtained by plotting the 1/V against reciprocal of substrate (1/[S]), and Km and Vmax were calculated.
A Lineweaver–Burk plot was constructed for every inhibitor, and Km and Vmax were calculated.
All experiments were conducted at least in triplicates and analysed using Prism software program v. 9 (GraphPad Software, San Diego, CA, USA). […] The IC50 values were then obtained from the respective curve. The mode of enzyme inhibition was graphically determined using the Lineweaver–Burk plot through nonlinear regression of all data sets at once using GraphPad Prism software.

The target of test [6] is human pancreatic amylase. Set-up: method as in Xie et al. 28. Particulars: similar substrate; ref Xie et al. 28; cited from earlier work.
Test [7] concerns the target T1, porcine pancreatic α-amylase (PPA). Nature of the test: Direct chromogenic assay, CNPG3 as substrate. The class given is biochemical. Here is the method: The inhibition of α-amylase activity was measured according to the method described by Kalita, Holm, LaBarbera, Petrash, and Jayanty with some modifications. […] This was followed by the addition of 50 µL of 2 mM CNPG3 substrate, diluted in phosphate buffer. The change in absorbance, indicating the release of p-nitrophenol as a reaction product, was recorded in 1 min intervals at 405 nm over a 10 min period (at 37 °C) using a Tecan Spark 10 M microplate reader. Reaction product scans (360–600 nm) were performed at the end of each experiment. Enzyme activity and inhibition (%) were calculated from the absorbance difference of each sample, in reference to the non-inhibited control.
as §1

The target is the same in test [8]. Nature of the test: DNS assay, amylose as substrate. The class given is biochemical. Particulars: concentrations up to 435 μM.
Procedure: The samples were then placed in a water bath (100 °C, 10 min) to stop the enzyme reaction, subsequently transferred to ice, cooled down, and centrifuged at 4000× g for 5 min.
In order to remove potentially interfering compounds such as anthocyanins and other polyphenols that might react with the DNS reagent, solid phase reaction (SPE) was applied [20]. Briefly, Oasis MAX cartridges (30 mg) were preconditioned (1 mL water, 1 mL methanol) and then dried under vacuum for 10 min. The samples that underwent the enzymatic reaction above were applied to the cartridge, and the flow through was collected. Then, 1 mL DNS reagent was added to each SPE-purified flow through sample (500 μL), and samples were heated for 10 min at 100 °C to aid the reaction. Subsequently, samples were cooled down to room temperature, diluted to an appropriate absorbance range, transferred to wells in 96-well plates (2 × 250 µL per sample), and absorbance was recorded at 540 nm using Tecan Spark 10 M multimode microplate reader (TECAN, Mannedorf, Switzerland). Enzyme inhibition was calculated as a percentage of the 100% activity control (absence of inhibitor) and considering individual sample background (absence of enzyme and substrate).
Setting [9] is: extracts per total anthocyanin content.

The source of these data is paper PMC10490044, “Chromogenic Assay Is More Efficient in Identifying α-Amylase Inhibitory Properties of Anthocyanin-Rich Samples When Compared to the 3,5-Dinitrosalicylic Acid (DNS) Assay” (Molecules, 2023).

Values after ≈ are worked out from the molar mass of the structure shown. Like-named read-outs stand apart in the source and are kept apart here. Where only a bound is given, the exact number is not on record here.

`OC[C@H]1O[C@@H](Oc2cc3c(O[C@@H]4O[C@H](CO)[C@@H](O)[C@H](O)[C@H]4O)cc(O)cc3[o+]c2-c2ccc(O)c(O)c2)[C@H](O)[C@@H](O)[C@@H]1O` [cyanidin-3,5-diglucoside]: the mode of inhibition result in test [1] is reported as “competitively”. Also, in test [2] (ref 27), the “IC50, DNS assay” value is more than 600 µg/mL.
`O=C(O)c1ccc(O)c(O)c1` [protocatechuic acid]: the “inhibition of α-amylase” value in test [3] is recorded as “unable to determine inhibition”.
For `COc1cc(-c2[o+]c3cc(O)cc(O)c3cc2O[C@@H]2O[C@H](CO)[C@@H](O)[C@H](O)[C@H]2O)cc(OC)c1O` [malvidin-3-glucoside], the IC50 in test [4] is 675 ± 73 µM.
Regarding `C[C@H]1O[C@H](O[C@H]2[C@H](O)[C@@H](O)[C@@H](O[C@H]3[C@H](O)[C@@H](O)C(O)O[C@@H]3CO)O[C@@H]2CO)[C@H](O)[C@@H](O)[C@@H]1N[C@H]1C=C(CO)[C@@H](O)[C@H](O)[C@H]1O` (stereo partly shown) [acarbose], in test [5], the mode of inhibition entry was “uncompetitive enzyme inhibition” and the “effect of inhibitor on Vmax” value was “decreased”. Moreover, in test [6], the “IC50, human pancreatic amylase” value was 0.47 µg/mL (≈ 0.728 µM). Further, the “IC50, DNS assay” value in test [2] (ref 15) is recorded as 11.7 µg/mL (≈ 18.1 µM). In test [2] (ref 27), the “IC50, DNS assay” value was 77.5 µg/mL (≈ 120 µM).
On to `Oc1cc(O)c2cc(O)c(-c3ccc(O)c(O)c3)[o+]c2c1` [Cyanidin, cyanidin], for which the half-maximal inhibitory concentration (IC50) in test [7] and in test [7] (setting [9]) was 491 µM each time. Further, in test [8], the “DNS Assay % inhibition” value is 7%. Also, in test [2] (ref 27), the “IC50, DNS assay” value is given as 109.2 µg/mL.
Turning to `OC[C@H]1O[C@@H](Oc2cc3c(O)cc(O)cc3[o+]c2-c2ccc(O)c(O)c2)[C@H](O)[C@@H](O)[C@H]1O` [Cyanidin-3-O-galactopyranoside], in test [7], half-maximal inhibition (IC50) required 414 µM. The “Direct Chromogenic Assay IC50” value in test [7] (setting [9]) is listed as 414 ± 2.6 µg/mL. For the same compound, in test [5], the mode of inhibition result is “competitive inhibitor” and the “effect of inhibitor on Vmax” value is reported as “remained constant”.
On to `OC[C@H]1O[C@@H](Oc2cc3c(O)cc(O)cc3[o+]c2-c2ccc(O)c(O)c2)[C@H](O)[C@@H](O)[C@@H]1O` [cyanidin-3-glucoside], for which, in test [1], the mode of inhibition entry is “competitively”. Moreover, the IC50 was 24 ± 3 µM in test [1] and 180 ± 20 µM in test [4]. Further, the “IC50, DNS assay” value in test [2] (ref 27) was 145.5 µg/mL.
`O=[N+]([O-])c1ccc(O[C@H]2O[C@H](CO)[C@@H](O[C@H]3O[C@H](CO)[C@@H](O[C@H]4O[C@H](CO)[C@@H](O)[C@H](O)[C@H]4O)[C@H](O)[C@H]3O)[C@H](O)[C@H]2O)c(Cl)c1` [CNPG3, 2-chloro-4 nitrophenyl α-D-maltotrioside]: the “Km value (Michaelis constant) of substrate” value in test [5] (no inhibitor) is 4.4 mg/mL.
As to `COc1cc(-c2[o+]c3cc(O)cc(O)c3cc2O[C@@H]2O[C@H](CO)[C@@H](O)[C@H](O)[C@H]2O)ccc1O` [peonidin-3-glucoside], in test [1], the mode of inhibition result is “competitively” and the IC50 is 75 ± 7 µM.
`O=C(/C=C/c1ccc(O)c(O)c1)O[C@@H]1C[C@](O)(C(=O)O)C[C@@H](O)[C@H]1O` [chlorogenic acid]: the “inhibition of α-amylase” value in test [3] is recorded as “unable to determine inhibition”.
For the compound `O=C(O)c1cc(O)c(O)c(O)c1` [gallic acid], the “inhibition of α-amylase” value in test [3] was “unable to determine inhibition”.
Take `C[C@@H]1O[C@@H](OC[C@H]2O[C@@H](Oc3cc4c(O)cc(O)cc4[o+]c3-c3ccc(O)c(O)c3)[C@H](O)[C@@H](O)[C@@H]2O)[C@H](O)[C@H](O)[C@H]1O` [cyanidin-3-rutinoside]: the mode of inhibition result in test [1] is recorded as “competitively”. For the same compound, the half-inhibitory concentration (IC50) in test [2] (ref 15, read-out: IC50, α-amylase) is 24.4 µM.

In general, IC50 refers to the concentration needed to halve the response being measured.
